Data taken from PMC5653977 (EMBO Molecular Medicine, 2017).
Structures can show the parent of a compound that is named as a salt. *1 amine or outer side, *2 acyl side, *3 side chain or, on linkers, in order; H or OH if unused. Where a SMILES comes first, the peptide text is derived from it. Bridges are numbered along the chain shown (N, C = ends). Roman numbers before positions name the chains, in order. [ ]: non-standard residue; d: D form. Actinocin(9to1) = Cc1c2oc3c(C)ccc(C(=O)[*:1])c3nc-2c(C(=O)[*:2])c(N)c1=O; NMeV = CN[C@H](C(=O)O)C(C)C; Sar = CNCC(=O)O

test system: NRG1-ERBB4 signaling; experiment: Nrg1-ERBB4-PIK3R1 split TEV co-culture compound screen of the NIH Clinical Collection; format: cell-based, human; settings: not given

With `O=P1(N(CCCl)CCCl)NCCCO1` (centres unmarked) [Cytoxan, reference compound] the Z-SCORE was -0.97.

same assay, conditions: NIH Clinical Collection NCC-003 raw data; compounds ranked by Z-score; 'flagged' given instead of a Z-score

Point of comparison: `C=C1C[C@@H]2[C@H](CC[C@]3(C)C(=O)CC[C@@H]23)[C@@]2(C)C=CC(=O)C=C12` [EXEMESTANE], Z-SCORE -1.23. Against it:
- CC(C)CC(N(C)C)C1(c2ccc(Cl)cc2)CCC1.Cl (centres unmarked) [SIBUTRAMINE HCl] — lower, -1.35
- CN1CCN(C2=Nc3ccccc3Oc3ccc(Cl)cc32)CC1 [Loxapine succinate] — higher, -1.14
- O=C(O)c1cc(/N=N/c2ccc(S(=O)(=O)Nc3ccccn3)cc2)ccc1O [SULFASALAZINE] — lower, -2.84

`CC[C@]1(O)C[C@H]2CN(CCc3c([nH]c4ccccc34)[C@@](C(=O)OC)(c3cc4c(cc3OC)N(C=O)[C@H]3[C@@](O)(C(=O)OC)[C@H](OC(C)=O)[C@]5(CC)C=CCN6CC[C@]43[C@@H]65)C2)C1` [VINCRISTINE SULFATE] was tested, and the Z-SCORE was “flagged”.
In the case of `Cc1c2oc3c(C)ccc(C(=O)N[C@@H]4C(=O)N[C@H](C(C)C)C(=O)N5CCC[C@H]5C(=O)N(C)CC(=O)N(C)[C@@H](C(C)C)C(=O)O[C@@H]4C)c3nc-2c(C(=O)N[C@@H]2C(=O)N[C@H](C(C)C)C(=O)N3CCC[C@H]3C(=O)N(C)CC(=O)N(C)[C@@H](C(C)C)C(=O)O[C@@H]2C)c(N)c1=O` [DACTINOMYCIN] (I: T[dV]P[Sar][NMeV] / II: T[dV]P[Sar][NMeV]; ester I:1-I:C, II:1-II:C; linker I:N-II:N via Actinocin(9to1)), the Z-SCORE is reported as “flagged”.

same assay, conditions: compound screen of the NIH Clinical Collection, sheet raw data NCC-003; compounds ranked by Z-score

Point of comparison: `Nc1nc2c(ncn2CCC(CO)CO)c(=O)[nH]1` [PENCICLOVIR], Z-SCORE -0.01. Against it:
- COc1ccc(C2CNC(=O)C2)cc1OC1CCCC1 (centres unmarked) [ROLIPRAM] — higher, 1.06
- C[N+]1(CCC(C(N)=O)(c2ccccc2)c2ccccc2)CCCCC1 [FENPIVERINIUM BROMIDE] — lower, -0.58
- CC[C@@H]1C(=O)OC[C@@H]1Cc1cncn1C [PILOCARPINE HYDROCHLORIDE] — lower, -0.77
- O=C(NCCN1CCOCC1)c1ccc(Cl)cc1 — lower, -0.92
- COc1ccc2[nH]c([S+]([O-])Cc3ncc(C)c(OC)c3C)nc2c1 (centres unmarked) [OMEPRAZOLE] — lower, -0.26
- COc1ccc2cc([C@H](C)C(=O)O)ccc2c1 [NAPROXEN SODIUM] — higher, 0.35
- CN1C(=O)CC[C@H]1c1cccnc1 [(-)-Cotinine] — lower, -0.57
- Cc1ccc(O)c([C@H](CCN(C(C)C)C(C)C)c2ccccc2)c1 [TOLTERODINE TARTRATE] — lower, -1.01
- NC(=O)OCC(COC(N)=O)c1ccccc1 [Felbamate] — lower, -0.25
- CCCN[C@H]1CCc2nc(N)sc2C1.Cl [PRAMIPEXOLE HCl] — lower, -0.74
- Cc1cccc(C)c1NC(=O)C1CCCCN1C (centres unmarked) [MEPIVACAINE HYDROCHLORIDE] — lower, -0.39
- C#C[C@]1(O)CC[C@H]2[C@@H]3CCc4cc(O)ccc4[C@H]3CC[C@@]21C [ETHYNYLESTRADIOL] — higher, 0.75
- CC(C)(C)NC(=O)[C@@H]1CN(Cc2cccnc2)CCN1C[C@@H](O)C[C@@H](Cc1ccccc1)C(=O)N[C@H]1c2ccccc2C[C@H]1O [INDINAVIR SULPHATE] — higher, 0.35
- COc1ccc2c3c1O[C@H]1C[C@@H](O)C=C[C@@]31CCN(C)C2 [Galanthamine] — higher, 1.13
- CC(c1cc2ccccc2s1)N(O)C(N)=O (centres unmarked) [ZILEUTON] — higher, 1.28
- COc1cc2c(cc1OC)[C@@]13CCN4CC5=CCO[C@H]6CC(=O)N2[C@H]1[C@H]6[C@H]5C[C@H]43 [Brucine] — higher, 0.21
- Nc1ccc2cn[nH]c2c1 [6-AMINOINDAZOLE] — higher, 0.45
- Cc1[nH]c(=O)c(C#N)cc1-c1ccncc1 [MILRINONE] — lower, -0.04
- C=C1/C(=C\C=C2/CCC[C@]3(C)[C@@H]([C@H](C)CCCC(C)(C)O)CC[C@@H]23)C[C@@H](O)C[C@@H]1O [CALCITRIOL] — lower, -0.48
- CN(C)CCc1c[nH]c2ccc(Cn3cncn3)cc12 [RIZATRIPTAN BENZOATE] — lower, -0.76
- C[C@H](N[C@@H](CCc1ccccc1)C(=O)O)C(=O)N1CCC[C@H]1C(=O)O — lower, -0.43
- CN(CCO)CC(O)Cn1cnc2c1c(=O)n(C)c(=O)n2C.O=C(O)c1cccnc1 (centres unmarked) [XANTHINOL NICOTINATE] — lower, -0.46
- Nc1nc(=O)[nH]cc1F [5-FLUOROCYTOSINE] — lower, -0.59
- C[C@@H]1C[C@H]2[C@@H]3CCC4=CC(=O)C=C[C@]4(C)[C@@]3(F)[C@@H](O)C[C@]2(C)[C@H]1C(=O)CO [DESOXIMETASONE] — lower, -0.5
- C#CCN(C)[C@H](C)Cc1ccccc1 [Selegiline hydrochloride] — lower, -0.57
- CN(C)CC[C@@H](c1ccc(Br)cc1)c1ccccn1 [DEXBROMPHENIRAMINE MALEATE] — lower, -0.74
- O=C([O-])Cc1ccccc1Nc1c(Cl)cccc1Cl.[Na+] — higher, 0.02
- CCOC(=O)[C@H](CCc1ccccc1)N[C@H]1CCc2ccccc2N(CC(=O)O)C1=O [BENAZEPRIL HCl] — higher, 0.26
- CN(C)CCOC(C)(c1ccccc1)c1ccccn1.O=C(O)CCC(=O)O (centres unmarked) [Doxylamine succinate salt] — higher, 0.36
- CCCCC/C=C\C/C=C\C/C=C\C/C=C\CCCC(=O)Nc1ccc(O)cc1 [AM 404] — lower, -1.01
- C[C@H]1COc2c(C3(N)CC3)c(F)cc3c(=O)c(C(=O)O)cn1c23 [PAZUFLOXACIN] — lower, -0.48
- CNC(=O)Oc1ccc2c(c1)[C@]1(C)CCN(C)[C@@H]1N2C [Physostigmine] — higher, 0.16
- C=CC1=C(C(=O)O)N2C(=O)[C@@H](NC(=O)/C(=N\OCC(=O)O)c3csc(N)n3)[C@H]2SC1 [CEFIXIME TRIHYDRATE] — higher, 1.63
- CCCN[C@H]1CCc2nc(N)sc2C1 [Pramipexole] — lower, -0.29
- CN(C)CCCSc1ccccc1NC(=O)/C=C/c1ccccc1 [Cinanserin] — lower, -0.77
- Nc1ccc(O)c(C(=O)O)c1 [5-Amino-2-hydroxy-benzoic acid] — higher, 1.62
- CC(C)NCC(O)c1ccc(NS(C)(=O)=O)cc1 (centres unmarked) [Sotalol hydrochloride] — higher, 1.57
- CC(=O)CCCCn1c(=O)c2c(ncn2C)n(C)c1=O [Pentoxifylline] — lower, -0.43
- Cc1nccn1CC1CCc2c(c3ccccc3n2C)C1=O.Cl (centres unmarked) [ONDANSETRON HYDROCHLORIDE] — higher, 0.51
- CCCc1c(OCCCCc2nnn[nH]2)ccc(C(C)=O)c1O [LY 171883] — higher, 2.04

same assay, conditions: compounds at 10 μM, 24 h; PC12 split TEV assay cells co-cultured with Nrg1-expressing PC12 cells; analysed with cellHTS2

Point of comparison: `CCCC(C)(COC(N)=O)COC(=O)NC(C)C` (centres unmarked) [Carisoprodol, reference compound], Z-SCORE -0.82. Against it:
- CN[C@@H]1[C@H](O)[C@H](NC)[C@H]2O[C@@]3(O)C(=O)C[C@@H](C)O[C@H]3O[C@@H]2[C@H]1O.Cl.Cl.O.O.O.O.O [SPECTINOMYCIN DIHYDROCHLORIDE PENTAHYDRATE, reference compound] — higher, 0.04
- O=C(N[C@H](CO)[C@H](O)c1ccc([N+](=O)[O-])cc1)C(Cl)Cl [Chloramphenicol, reference compound] — higher, 0.74
- Cc1ccc(N(CC2=NCCN2)c2cccc(O)c2)cc1 [PHENTOLAMINE HCL, reference compound] — lower, -1.17
- O=C(C1CCCCC1)N1CC(=O)N2CCc3ccccc3C2C1 (centres unmarked) [PRAZIQUANTEL, reference compound] — higher, 0.38
- CC1(C)O[C@@H]2C[C@H]3[C@@H]4C[C@H](F)C5=CC(=O)C=C[C@]5(C)[C@H]4[C@@H](O)C[C@]3(C)[C@]2(C(=O)CO)O1 [FluniSOLIDe, reference compound] — higher, 2.03
- C#C[C@]1(O)CC[C@H]2[C@@H]3CCC4=Cc5oncc5C[C@]4(C)[C@H]3CC[C@@]21C [DANAZOL, reference compound] — higher, -0.3
- CCN(CC)CCNC(=O)c1ccc(N)cc1 [Pronestyl, reference compound] — higher, 0.04
- CN1CCC[C@H]1c1cccnc1 [NICOTINE, reference compound] — higher, -0.12
- O=C(O)c1cc2ccccc2c(Cc2c(O)c(C(=O)O)cc3ccccc23)c1O.OCCOCCN1CCN(C(c2ccccc2)c2ccc(Cl)cc2)CC1 [Vistaril Pamoate, reference compound] — lower, -1.45
- CCCC(=O)Nc1ccc(OCC(O)CNC(C)C)c(C(C)=O)c1 (centres unmarked) [ACEBUTOLOL HYDROCHLORIDE, reference compound] — higher, 0.4
- Cc1ccc(Cl)c(Nc2ccccc2C(=O)O)c1Cl [Meclomen, reference compound] — higher, -0.25
- COc1c(N2CCNC(C)C2)c(F)cc2c(=O)c(C(=O)O)cn(C3CC3)c12 (centres unmarked) [Gatifloxacin, reference compound] — higher, 1.07
- CNCC(O)c1ccc(O)c(O)c1.Cl (racemic) [(+/-)-Epinephrine hydrochloride, reference compound] — higher, -0.69
- CC(C[N+](C)(C)C)OC(N)=O (centres unmarked) [Urecholine, reference compound] — lower, -0.94
- CC(=O)/N=c1/sc(S(N)(=O)=O)nn1C [Methazolamide, reference compound] — higher, 0.38
- CC(C)OC(=O)C(C)(C)Oc1ccc(C(=O)c2ccc(Cl)cc2)cc1 [FENOFIBRATE, reference compound] — higher, 0.77
- CN(C)C(=O)Oc1ccc[n+](C)c1 [Mestinon, reference compound] — higher, -0.37
- Cc1nnc(SCC2=C(C(=O)O)N3C(=O)[C@@H](NC(=O)Cn4cnnn4)[C@H]3SC2)s1 [CEFAZOLIN SODIUM SALT, reference compound] — higher, -0.74
- CC1=C(C/C=C(\C)CCC[C@H](C)CCC[C@H](C)CCCC(C)C)C(=O)c2ccccc2C1=O [Phylloquinone, reference compound] — higher, -0.1
- CO/N=C(\C(=O)N[C@@H]1C(=O)N2C(C(=O)O)=C(COC(C)=O)CS[C@H]12)c1csc(N)n1 [CEFOTAXIME SODIUM SALT, reference compound] — higher, -0.2
- Cc1noc(NS(=O)(=O)c2ccc(N)cc2)c1C [Sulfisoxazole, reference compound] — higher, 1.21

`O=C1c2c(O)ccc(O)c2C(=O)c2c(NCCNCCO)ccc(NCCNCCO)c21` [MITOXANTRONE, reference compound] was tested, and the Z-SCORE was “flagged”.
